Laboratory results: patent publication EP1038533A1, “MEDICINAL COMPOSITIONS FOR TREATING IMMUNODEFICIENCY DISEASES” (Nippon Kayaku Kabushiki Kaisha, priority 1997, dated 1999)
Like-named read-outs stand apart in the source and are kept apart here.

Columns and labels:
[1] = test system: HIV (human immunodeficiency virus); assay type: in vivo; details: patient
Experimental: (§1) The therapeutic effect of 15-deoxyspergualin for immunodeficiency was clinically investigated by administering the compound to HIV-infected patients. The details are shown below.
To a patient who was diagnosed as a HIV positive 1 year and 10 months ago, the 15-deoxyspergualin injection of Example 1 later described was intravenously administered for consecutive 15 days in a dose of 0.15 mg/kg body weight/day. This cycle was made one course. Then, no drug period was set for 6 weeks followed by repetition with 2 courses with the same interval between the second course and the third couse, as well.
The CD4^+/CD8^+ level was measured immediately before and after each course and, 3 months and 2 years after the completion of Course 3, namely, 8 measurements in total.

[2] = test system: HIV (human immunodeficiency virus); experiment: Test Example 2: clinical administration of 15-deoxyspergualin injection to five HIV positive carriers; assay type: in vivo; details: 0.15 mg/kg body weight/day i.v. 14 days per course; for fatigue (malaise) of the worst kind: 3 courses
Experimental: as §1
To five (5) carriers diagnosed as HIV positive, the 15-deoxyspergualin injection was intravenously administered for consecutive 14 days in a dose of 0.15 mg/kg body weight/day. This cycle was made one course. Then, no drug period was set for 6 weeks followed by repetition with 2 courses with the same interval between the second course and the third course, as well. The CD4^+ cell count, CD4^+ /CD8^+ level and virus load, etc. were measured immediately before and after each course and 6 weeks after the completion of Course 3, respectively.

[3] = throughout the entire period of the treatment
[4] = Case 1, 6 Weeks after completion of Course 3
[5] = Case 1, Immediately after Course 1
[6] = Case 1, Immediately after Course 2
[7] = Case 1, Immediately after Course 3
[8] = Case 1, Immediately before Course 1 (before treatment)
[9] = Case 1, Immediately before Course 2
[10] = Case 1, Immediately before Course 3
[11] = Case 2, 6 Weeks after completion of Course 3
[12] = Case 2, Immediately after Course 1
[13] = Case 2, Immediately after Course 2
[14] = Case 2, Immediately after Course 3
[15] = Case 2, Immediately before Course 1 (before treatment)
[16] = Case 2, Immediately before Course 2
[17] = Case 2, Immediately before Course 3
[18] = Case 3, 6 Weeks after completion of Course 3
[19] = Case 3, Immediately after Course 1
[20] = Case 3, Immediately after Course 2
[21] = Case 3, Immediately after Course 3
[22] = Case 3, Immediately before Course 1 (before treatment)
[23] = Case 3, Immediately before Course 2
[24] = Case 3, Immediately before Course 3
[25] = Case 4, 6 Weeks after completion of Course 3
[26] = Case 4, Immediately after Course 1
[27] = Case 4, Immediately after Course 2
[28] = Case 4, Immediately after Course 3
[29] = Case 4, Immediately before Course 1 (before treatment)
[30] = Case 4, Immediately before Course 2
[31] = Case 4, Immediately before Course 3
[32] = Case 5, 6 Weeks after completion of Course 3
[33] = Case 5, Immediately after Course 1
[34] = Case 5, Immediately after Course 2
[35] = Case 5, Immediately after Course 3
[36] = Case 5, Immediately before Course 1 (before treatment)
[37] = Case 5, Immediately before Course 2
[38] = Case 5, Immediately before Course 3

In the case of `N=C(N)NCCCCCCC(=O)NC(O)C(=O)NCCCCNCCCN` (centres unmarked) [15-deoxyspergualin], the “CD4^+/CD8^+ level” value ([1]; 0.15 mg/kg body weight/day i.v. 15 days per course, 2 Years after completion of Course 3) is reported as 0.90, the “CD4^+/CD8^+ level” value ([1]; 0.15 mg/kg body weight/day i.v. 15 days per course, 3 Months after completion of Course 3) is reported as 0.93 and the “CD4^+/CD8^+ level” value ([1]; 0.15 mg/kg body weight/day i.v. 15 days per course, Immediately after Course 1) is reported as 0.72. The “CD4^+/CD8^+ level” value ([1]; 0.15 mg/kg body weight/day i.v. 15 days per course, Immediately after Course 2) was 0.75, the “CD4^+/CD8^+ level” value ([1]; 0.15 mg/kg body weight/day i.v. 15 days per course, Immediately after Course 3) was 0.84 and the “CD4^+/CD8^+ level” value ([1]; 0.15 mg/kg body weight/day i.v. 15 days per course, Immediately before Course 1 (before treatment)) was 0.68. For the same molecule, the “CD4^+/CD8^+ level” value ([1]; 0.15 mg/kg body weight/day i.v. 15 days per course, Immediately before Course 2) was 0.78, the “CD4^+/CD8^+ level” value ([1]; 0.15 mg/kg body weight/day i.v. 15 days per course, Immediately before Course 3) was 0.87 and the “decrease of CD4^+/CD8^+ level immediately after Courses 2 and 3 versus immediately before the courses” value ([1]; 0.15 mg/kg body weight/day i.v. 15 days per course, attributed to weak bone marrow suppression) was 0.03. The complaint of fatigue ([1]; 0.15 mg/kg body weight/day i.v. 15 days, after Course 1 was finished) was “disappeared completely”, the leucocyte count [1, 3] was “approximately 6200” and the other side effect [1, 3] was “no other side effect was observed at all”. For the same molecule, the “CD4^+ T cell counts” value [2, 4] was 760 µL⁻¹, the “CD4^+/CD8^+ levels” value [2, 4] was 0.93 and the Virus loads [2, 4] was 6000 particles/ml. For the same molecule, the “CD4^+ T cell counts” value [2, 5] was 680 µL⁻¹, the “CD4^+/CD8^+ levels” value [2, 5] was 0.82 and the Virus loads [2, 5] was 8600 particles/ml. The “CD4^+ T cell counts” value [2, 6] was 740 µL⁻¹, the “CD4^+/CD8^+ levels” value [2, 6] was 0.86 and the Virus loads [2, 6] was 8000 particles/ml. For the same molecule, the “CD4^+ T cell counts” value [2, 7] was 750 µL⁻¹, the “CD4^+/CD8^+ levels” value [2, 7] was 0.93 and the Virus loads [2, 7] was 7000 particles/ml. For the same molecule, the “CD4^+ T cell counts” value [2, 8] was 680 µL⁻¹, the “CD4^+/CD8^+ levels” value [2, 8] was 0.78 and the Virus loads [2, 8] was 12000 particles/ml. The “CD4^+ T cell counts” value [2, 9] was 730 µL⁻¹, the “CD4^+/CD8^+ levels” value [2, 9] was 0.80 and the Virus loads [2, 9] was 9000 particles/ml. The “CD4^+ T cell counts” value [2, 10] was 720 µL⁻¹, the “CD4^+/CD8^+ levels” value [2, 10] was 0.85 and the Virus loads [2, 10] was 8200 particles/ml. For the same molecule, the “CD4^+ T cell counts” value [2, 11] was 740 µL⁻¹, the “CD4^+/CD8^+ levels” value [2, 11] was 0.78 and the Virus loads [2, 11] was 13000 particles/ml. For the same molecule, the “CD4^+ T cell counts” value [2, 12] was 740 µL⁻¹, the “CD4^+/CD8^+ levels” value [2, 12] was 0.72 and the Virus loads [2, 12] was 13000 particles/ml. The “CD4^+ T cell counts” value [2, 13] was 730 µL⁻¹, the “CD4^+/CD8^+ levels” value [2, 13] was 0.77 and the Virus loads [2, 13] was 14000 particles/ml. The “CD4^+ T cell counts” value [2, 14] was 750 µL⁻¹, the “CD4^+/CD8^+ levels” value [2, 14] was 0.79 and the Virus loads [2, 14] was 14000 particles/ml. The “CD4^+ T cell counts” value [2, 15] was 750 µL⁻¹, the “CD4^+/CD8^+ levels” value [2, 15] was 0.76 and the Virus loads [2, 15] was 15000 particles/ml. For the same molecule, the “CD4^+ T cell counts” value [2, 16] was 750 µL⁻¹, the “CD4^+/CD8^+ levels” value [2, 16] was 0.78 and the Virus loads [2, 16] was 13000 particles/ml. For the same molecule, the “CD4^+ T cell counts” value [2, 17] was 760 µL⁻¹, the “CD4^+/CD8^+ levels” value [2, 17] was 0.80 and the Virus loads [2, 17] was 15000 particles/ml. For the same molecule, the “CD4^+ T cell counts” value [2, 18] was 800 µL⁻¹, the “CD4^+/CD8^+ levels” value [2, 18] was 0.90 and the Virus loads [2, 18] was 6000 particles/ml. For the same molecule, the “CD4^+ T cell counts” value [2, 19] was 570 µL⁻¹, the “CD4^+/CD8^+ levels” value [2, 19] was 0.73 and the Virus loads [2, 19] was 11000 particles/ml. The “CD4^+ T cell counts” value [2, 20] was 600 µL⁻¹, the “CD4^+/CD8^+ levels” value [2, 20] was 0.75 and the Virus loads [2, 20] was 7000 particles/ml. The “CD4^+ T cell counts” value [2, 21] was 720 µL⁻¹, the “CD4^+/CD8^+ levels” value [2, 21] was 0.90 and the Virus loads [2, 21] was 6000 particles/ml. For the same molecule, the “CD4^+ T cell counts” value [2, 22] was 550 µL⁻¹, the “CD4^+/CD8^+ levels” value [2, 22] was 0.69 and the Virus loads [2, 22] was 17000 particles/ml. For the same molecule, the “CD4^+ T cell counts” value [2, 23] was 590 µL⁻¹, the “CD4^+/CD8^+ levels” value [2, 23] was 0.72 and the Virus loads [2, 23] was 11000 particles/ml. For the same molecule, the “CD4^+ T cell counts” value [2, 24] was 650 µL⁻¹, the “CD4^+/CD8^+ levels” value [2, 24] was 0.84 and the Virus loads [2, 24] was 8000 particles/ml. For the same molecule, the “CD4^+ cell counts” value [2, 25] was 910 µL⁻¹, the “CD4^+/CD8^+ levels” value [2, 25] was 0.92 and the Virus loads [2, 25] was 13000 particles/ml. For the same molecule, the “CD4^+ cell counts” value [2, 26] was 710 µL⁻¹, the “CD4^+/CD8^+ levels” value [2, 26] was 0.75 and the Virus loads [2, 26] was 20000 particles/ml. For the same molecule, the “CD4^+ cell counts” value [2, 27] was 760 µL⁻¹, the “CD4^+/CD8^+ levels” value [2, 27] was 0.85 and the Virus loads [2, 27] was 18000 particles/ml. For the same molecule, the “CD4^+ cell counts” value [2, 28] was 850 µL⁻¹, the “CD4^+/CD8^+ levels” value [2, 28] was 0.94 and the Virus loads [2, 28] was 15000 particles/ml. The “CD4^+ cell counts” value [2, 29] was 640 µL⁻¹, the “CD4^+/CD8^+ levels” value [2, 29] was 0.73 and the Virus loads [2, 29] was 25000 particles/ml. The “CD4^+ cell counts” value [2, 30] was 770 µL⁻¹, the “CD4^+/CD8^+ levels” value [2, 30] was 0.83 and the Virus loads [2, 30] was 20000 particles/ml. For the same molecule, the “CD4^+ cell counts” value [2, 31] was 840 µL⁻¹, the “CD4^+/CD8^+ levels” value [2, 31] was 0.90 and the Virus loads [2, 31] was 17000 particles/ml. For the same molecule, the “CD4^+ cell counts” value [2, 32] was 900 µL⁻¹, the “CD4^+/CD8^+ levels” value [2, 32] was 0.90 and the Virus loads [2, 32] was 6000 particles/ml. The “CD4^+ cell counts” value [2, 33] was 750 µL⁻¹, the “CD4^+/CD8^+ levels” value [2, 33] was 0.80 and the Virus loads [2, 33] was 6000 particles/ml. For the same molecule, the “CD4^+ cell counts” value [2, 34] was 820 µL⁻¹, the “CD4^+/CD8^+ levels” value [2, 34] was 0.83 and the Virus loads [2, 34] was 6500 particles/ml. For the same molecule, the “CD4^+ cell counts” value [2, 35] was 890 µL⁻¹, the “CD4^+/CD8^+ levels” value [2, 35] was 0.87 and the Virus loads [2, 35] was 6000 particles/ml. For the same molecule, the “CD4^+ cell counts” value [2, 36] was 780 µL⁻¹, the “CD4^+/CD8^+ levels” value [2, 36] was 0.79 and the Virus loads [2, 36] was 6000 particles/ml. The “CD4^+ cell counts” value [2, 37] was 810 µL⁻¹, the “CD4^+/CD8^+ levels” value [2, 37] was 0.81 and the Virus loads [2, 37] was 7000 particles/ml. The “CD4^+ cell counts” value [2, 38] was 880 µL⁻¹, the “CD4^+/CD8^+ levels” value [2, 38] was 0.85 and the Virus loads [2, 38] was 6500 particles/ml. For the same molecule, the “fatigue (malaise) of the worst kind” value ([2]; Cases 1, 3 and 4) was “improved” and the “fatigue (malaise) of the worst kind” value ([2]; Cases 2 and 5) was “no change”.
